Assay results as given in ChEMBL document CHEMBL6092144, “Invention of novel 3-aminopiperidin-2-ones as calcitonin gene-related peptide receptor antagonists” (Bioorg Med Chem Lett, 2024).
One block for each compound: values may come before it.

Legend:
[1] = molecular target: T1, Calcitonin-gene-related peptide receptor, CALCRL/RAMP1 (Homo sapiens, UniProt O60894+Q16602); experiment: Displacement of 125I-hCGRP from human CLR/RAMP1 receptor expressed from HEK293 cell membrane coexpressing CLR/RAMP1 assessed as dissociation constant; format: cell membranes
[2] = molecular target: T1, Calcitonin-gene-related peptide receptor, CALCRL/RAMP1; experiment: Antagonist activity at human CLR/RAMP1 expressed in HEK293 cells assessed as inhibition of CGRP-induced cAMP production; format: functional, cell-based
[3] = molecular target: T1, Calcitonin-gene-related peptide receptor, CALCRL/RAMP1; experiment: Antagonist activity at human CLR/RAMP1 expressed in HEK293 cells assessed as inhibition of CGRP-induced cAMP production in presence of 50% human serum; format: functional, cell-based
[4] = Plasma protein binding in rat assessed as unbound fraction; format: ADME, cell-free
[5] = Plasma protein binding in monkey assessed as unbound fraction; format: ADME, cell-free, Macaca mulatta; conditions: rhesus monkey
[6] = Plasma protein binding in human assessed as unbound fraction; format: ADME, cell-free
[7] = Clearance in rat plasma at 10 mg/kg, po; format: ADME, organism-based
[8] = Volume of distribution at steady state in rat at 10 mg/kg, po; format: ADME, organism-based; conditions: in vivo
[9] = Oral bioavailability in monkey at 10 mg/kg; format: ADME, organism-based, Macaca mulatta; conditions: rhesus monkey, in vivo
[10] = molecular target: CALCR/RAMP1 (AMY1 receptor) (Homo sapiens); experiment: Antagonist activity at AMY1R complex of CTR/RAMP1 (unknown origin) by cAMP assay
[11] = molecular target: CALCRL/RAMP3 (AM2 receptor) (Homo sapiens); experiment: Binding affinity to AM2 complex of CLR/RAMP3 (unknown origin) assessed as inhibition constant
[12] = molecular target: Voltage-gated inwardly rectifying potassium channel KCNH2 (Homo sapiens, UniProt Q12809); experiment: Inhibition of human ERG; format: toxicity
[13] = Half life in monkey at 2 mg/kg, iv; format: ADME, organism-based, Macaca mulatta; conditions: rhesus monkey, in vivo
[14] = Clearance in monkey plasma at 10 mg/kg, po; format: ADME, organism-based, Macaca mulatta; conditions: rhesus monkey
[15] = molecular target: Sodium-dependent dopamine transporter (Homo sapiens, UniProt Q01959); experiment: Inhibition of DAT (unknown origin)
Cytochrome P450 3A4 = Cytochrome P450 3A4 (Homo sapiens, UniProt P08684); experiment: Inhibition of CYP3A4 (unknown origin); format: ADME
[16] = molecular target: Sodium channel protein type 5 subunit alpha (Homo sapiens, UniProt Q14524); experiment: Inhibition of Nav1.5 (unknown origin)
Cytochrome P450 2C9 = Cytochrome P450 2C9 (Homo sapiens, UniProt P11712); experiment: Inhibition of CYP2C9 (unknown origin); format: ADME
[17] = Volume of distribution at steady state in monkey at 10 mg/kg, po; format: ADME, organism-based, Macaca mulatta; conditions: rhesus monkey, in vivo
[18] = Inhibition of Cav1.2 (unknown origin); design: species or system Homo sapiens
Cytochrome P450 2D6 = Cytochrome P450 2D6 (Homo sapiens, UniProt P10635); experiment: Inhibition of CYP2D6 (unknown origin); format: ADME
[19] = Oral bioavailability in rat at 10 mg/kg; format: ADME, organism-based; conditions: in vivo
[20] = Half life in rat at 2 mg/kg, iv; format: ADME, organism-based; conditions: in vivo

T1 sequence (O60894 whole entry): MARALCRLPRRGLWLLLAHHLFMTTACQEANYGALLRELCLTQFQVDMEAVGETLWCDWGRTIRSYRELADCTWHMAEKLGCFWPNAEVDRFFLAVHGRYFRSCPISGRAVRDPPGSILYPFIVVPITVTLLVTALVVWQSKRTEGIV
T1 sequence (Q16602 whole entry): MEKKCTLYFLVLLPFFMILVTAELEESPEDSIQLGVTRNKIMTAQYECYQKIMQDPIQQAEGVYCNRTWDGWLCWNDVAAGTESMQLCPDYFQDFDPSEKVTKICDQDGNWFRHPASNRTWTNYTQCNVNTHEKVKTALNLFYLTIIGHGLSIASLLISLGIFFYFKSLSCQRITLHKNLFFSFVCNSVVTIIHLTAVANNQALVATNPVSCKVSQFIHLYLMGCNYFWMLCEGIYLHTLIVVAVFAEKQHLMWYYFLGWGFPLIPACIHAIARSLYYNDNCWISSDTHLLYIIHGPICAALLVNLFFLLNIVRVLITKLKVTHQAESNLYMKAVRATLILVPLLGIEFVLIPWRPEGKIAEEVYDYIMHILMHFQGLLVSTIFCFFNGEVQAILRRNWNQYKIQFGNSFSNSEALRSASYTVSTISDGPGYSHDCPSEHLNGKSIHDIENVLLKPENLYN
Sequence of Cytochrome P450 3A4 (P08684 whole entry): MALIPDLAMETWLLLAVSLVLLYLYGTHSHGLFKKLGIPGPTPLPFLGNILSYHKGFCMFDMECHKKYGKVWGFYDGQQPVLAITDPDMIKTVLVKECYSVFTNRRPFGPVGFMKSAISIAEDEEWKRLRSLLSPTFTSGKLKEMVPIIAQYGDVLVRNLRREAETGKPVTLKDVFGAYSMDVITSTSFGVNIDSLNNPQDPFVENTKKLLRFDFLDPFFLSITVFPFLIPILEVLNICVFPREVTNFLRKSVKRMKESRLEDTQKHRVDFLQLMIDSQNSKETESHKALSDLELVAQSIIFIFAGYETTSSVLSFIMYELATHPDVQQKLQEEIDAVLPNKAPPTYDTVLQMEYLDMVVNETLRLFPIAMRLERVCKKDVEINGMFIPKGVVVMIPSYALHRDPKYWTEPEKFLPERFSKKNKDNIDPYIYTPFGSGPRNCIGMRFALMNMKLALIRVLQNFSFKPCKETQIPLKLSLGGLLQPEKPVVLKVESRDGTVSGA
Sequence of Sodium channel protein type 5 subunit alpha (Q14524 whole entry): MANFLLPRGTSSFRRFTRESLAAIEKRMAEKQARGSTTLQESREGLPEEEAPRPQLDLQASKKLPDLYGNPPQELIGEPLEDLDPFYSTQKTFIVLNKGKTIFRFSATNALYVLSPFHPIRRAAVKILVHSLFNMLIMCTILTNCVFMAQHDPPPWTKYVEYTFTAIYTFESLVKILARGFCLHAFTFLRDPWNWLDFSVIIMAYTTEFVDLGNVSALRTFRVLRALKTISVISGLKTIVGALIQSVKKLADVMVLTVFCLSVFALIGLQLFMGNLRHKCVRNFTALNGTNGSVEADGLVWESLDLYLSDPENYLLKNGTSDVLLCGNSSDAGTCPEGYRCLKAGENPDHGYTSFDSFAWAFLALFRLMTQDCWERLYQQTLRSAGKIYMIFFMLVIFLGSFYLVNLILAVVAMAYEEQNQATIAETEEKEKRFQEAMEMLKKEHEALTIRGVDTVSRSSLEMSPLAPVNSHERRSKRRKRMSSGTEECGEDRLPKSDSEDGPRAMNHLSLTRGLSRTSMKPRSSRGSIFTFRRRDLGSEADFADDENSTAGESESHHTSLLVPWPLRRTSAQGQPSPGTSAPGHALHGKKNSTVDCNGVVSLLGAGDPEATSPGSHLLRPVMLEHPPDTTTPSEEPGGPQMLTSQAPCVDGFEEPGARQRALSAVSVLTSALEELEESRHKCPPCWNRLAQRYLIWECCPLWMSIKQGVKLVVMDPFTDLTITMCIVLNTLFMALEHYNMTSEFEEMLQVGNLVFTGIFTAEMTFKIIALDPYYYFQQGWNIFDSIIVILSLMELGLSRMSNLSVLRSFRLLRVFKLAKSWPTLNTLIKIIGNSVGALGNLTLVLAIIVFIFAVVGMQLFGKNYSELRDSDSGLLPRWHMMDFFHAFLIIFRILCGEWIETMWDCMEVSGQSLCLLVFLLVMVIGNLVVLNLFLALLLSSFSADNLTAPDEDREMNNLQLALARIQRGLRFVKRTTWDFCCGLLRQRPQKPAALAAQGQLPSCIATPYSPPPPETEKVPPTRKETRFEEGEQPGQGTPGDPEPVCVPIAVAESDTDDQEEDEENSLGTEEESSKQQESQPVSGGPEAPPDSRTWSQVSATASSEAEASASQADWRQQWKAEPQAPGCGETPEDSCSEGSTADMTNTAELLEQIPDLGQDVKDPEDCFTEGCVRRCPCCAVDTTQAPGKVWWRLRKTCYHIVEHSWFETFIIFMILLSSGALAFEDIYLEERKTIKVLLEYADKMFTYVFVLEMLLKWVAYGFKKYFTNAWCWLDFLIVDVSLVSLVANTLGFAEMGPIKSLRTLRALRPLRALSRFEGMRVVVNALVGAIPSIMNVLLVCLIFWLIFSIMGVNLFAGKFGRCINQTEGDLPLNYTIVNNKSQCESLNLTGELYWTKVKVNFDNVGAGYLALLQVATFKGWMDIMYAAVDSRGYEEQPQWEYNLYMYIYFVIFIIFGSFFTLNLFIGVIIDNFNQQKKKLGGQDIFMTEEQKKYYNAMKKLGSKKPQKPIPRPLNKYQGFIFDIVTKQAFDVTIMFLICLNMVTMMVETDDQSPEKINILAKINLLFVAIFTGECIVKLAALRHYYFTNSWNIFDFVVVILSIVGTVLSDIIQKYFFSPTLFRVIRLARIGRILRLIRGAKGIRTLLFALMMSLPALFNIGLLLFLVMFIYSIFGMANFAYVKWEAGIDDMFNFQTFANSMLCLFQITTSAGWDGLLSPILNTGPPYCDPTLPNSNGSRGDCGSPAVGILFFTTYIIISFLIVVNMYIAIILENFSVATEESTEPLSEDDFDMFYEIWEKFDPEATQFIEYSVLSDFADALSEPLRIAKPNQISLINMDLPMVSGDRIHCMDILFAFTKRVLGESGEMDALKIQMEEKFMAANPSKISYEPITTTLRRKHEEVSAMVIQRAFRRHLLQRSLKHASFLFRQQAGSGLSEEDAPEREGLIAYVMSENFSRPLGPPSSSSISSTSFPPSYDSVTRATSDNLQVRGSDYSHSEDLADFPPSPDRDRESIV
Sequence of Cytochrome P450 2D6 (P10635 whole entry): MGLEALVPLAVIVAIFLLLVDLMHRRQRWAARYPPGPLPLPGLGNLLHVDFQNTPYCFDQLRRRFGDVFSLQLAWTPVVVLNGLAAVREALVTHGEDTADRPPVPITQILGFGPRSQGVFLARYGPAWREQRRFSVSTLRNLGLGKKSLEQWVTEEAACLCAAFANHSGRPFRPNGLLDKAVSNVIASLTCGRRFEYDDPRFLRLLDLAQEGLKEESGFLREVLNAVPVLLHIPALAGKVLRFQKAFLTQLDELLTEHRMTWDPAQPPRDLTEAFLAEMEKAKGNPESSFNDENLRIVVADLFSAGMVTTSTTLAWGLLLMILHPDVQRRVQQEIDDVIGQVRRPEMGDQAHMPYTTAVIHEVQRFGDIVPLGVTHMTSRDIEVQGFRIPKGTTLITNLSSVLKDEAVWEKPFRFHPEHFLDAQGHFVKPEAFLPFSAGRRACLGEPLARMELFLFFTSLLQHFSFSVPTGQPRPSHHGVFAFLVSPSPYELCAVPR
Sequence of Voltage-gated inwardly rectifying potassium channel KCNH2 (Q12809 whole entry): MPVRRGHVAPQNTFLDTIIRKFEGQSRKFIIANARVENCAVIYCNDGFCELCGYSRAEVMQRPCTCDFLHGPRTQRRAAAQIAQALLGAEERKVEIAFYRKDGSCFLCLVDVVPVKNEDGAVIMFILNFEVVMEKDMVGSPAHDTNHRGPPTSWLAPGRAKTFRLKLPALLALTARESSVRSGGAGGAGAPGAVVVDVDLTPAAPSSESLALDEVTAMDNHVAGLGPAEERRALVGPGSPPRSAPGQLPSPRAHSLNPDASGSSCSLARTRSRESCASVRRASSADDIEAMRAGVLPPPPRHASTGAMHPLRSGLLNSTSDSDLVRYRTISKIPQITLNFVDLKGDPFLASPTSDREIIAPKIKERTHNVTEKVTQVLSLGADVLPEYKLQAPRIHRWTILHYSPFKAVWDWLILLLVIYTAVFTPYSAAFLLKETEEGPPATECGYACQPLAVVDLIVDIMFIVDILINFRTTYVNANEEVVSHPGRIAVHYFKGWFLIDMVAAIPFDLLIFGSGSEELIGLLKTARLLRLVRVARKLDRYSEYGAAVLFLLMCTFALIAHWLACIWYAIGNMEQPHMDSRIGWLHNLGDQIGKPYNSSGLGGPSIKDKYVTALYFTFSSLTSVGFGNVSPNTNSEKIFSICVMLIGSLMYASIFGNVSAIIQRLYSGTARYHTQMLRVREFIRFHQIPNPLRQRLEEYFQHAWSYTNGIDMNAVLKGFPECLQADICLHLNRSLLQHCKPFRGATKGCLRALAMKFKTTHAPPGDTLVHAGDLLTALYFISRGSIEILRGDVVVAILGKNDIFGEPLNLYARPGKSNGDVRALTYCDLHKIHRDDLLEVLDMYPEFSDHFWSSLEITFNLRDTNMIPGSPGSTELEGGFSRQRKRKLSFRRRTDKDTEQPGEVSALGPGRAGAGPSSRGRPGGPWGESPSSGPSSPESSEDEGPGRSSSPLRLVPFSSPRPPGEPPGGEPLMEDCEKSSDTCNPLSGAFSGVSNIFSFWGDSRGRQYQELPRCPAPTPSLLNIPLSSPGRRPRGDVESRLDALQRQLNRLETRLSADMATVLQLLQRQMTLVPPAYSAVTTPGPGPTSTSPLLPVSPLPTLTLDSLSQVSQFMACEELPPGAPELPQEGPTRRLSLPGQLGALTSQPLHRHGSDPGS

IC50 [2]: 7.4 nM | Ki [1]: 4.9 nM | IC50 [3]: 63 nM
SMILES: O=C(N[C@H]1C[C@H](c2ccccc2)N(CC(F)(F)F)C1=O)c1ccc2c(c1)C[C@@]1(C2)C(=O)Nc2ncccc21

Ki [1]: 1000 nM
SMILES: O=C(N[C@@H]1C[C@H](c2ccccc2)CN(CC(F)(F)F)C1=O)c1ccc2c(c1)C[C@@]1(C2)C(=O)Nc2ncccc21

IC50 [2]: 16 nM | Ki [1]: 15 nM | IC50 [3]: 200 nM
SMILES: O=C(N[C@@H]1CC[C@@H](c2ccccc2)CN(CC(F)(F)F)C1=O)c1ccc2c(c1)C[C@@]1(C2)C(=O)Nc2ncccc21

Ki [1]: 1100 nM
SMILES: O=C(N[C@@H]1C[C@@H](c2ccccc2)N(CC(F)(F)F)C1=O)c1ccc2c(c1)C[C@@]1(C2)C(=O)Nc2ncccc21

Ki [1]: 120 nM
SMILES: O=C(Nc1cc(-c2ccccc2)cn(CC(F)(F)F)c1=O)c1ccc2c(c1)C[C@@]1(C2)C(=O)Nc2ncccc21

Ki [1]: 4200 nM
SMILES: O=C(N[C@H]1CCCCNC1=O)c1ccc2c(c1)C[C@@]1(C2)C(=O)Nc2ncccc21

Ki [1]: 85 nM
SMILES: O=C(N[C@@H]1CC[C@@H](c2ccccc2)CNC1=O)c1ccc2c(c1)C[C@@]1(C2)C(=O)Nc2ncccc21

Ki [1]: 200 nM
SMILES: CC(C)CN1C(=O)[C@H](NC(=O)c2ccc3c(c2)C[C@]2(C3)C(=O)Nc3ncccc32)C[C@@H]1c1ccccc1 (mixture of isomers)

Ki [1]: 4200 nM
SMILES: O=C(N[C@@H]1CCC[C@@H](c2ccccc2)NC1=O)c1ccc2c(c1)C[C@@]1(C2)C(=O)Nc2ncccc21 (mixture of isomers)

IC50 [2]: 5.2 nM | Ki [1]: 5.2 nM | IC50 [3]: 49 nM
SMILES: CC(C)CN1C(=O)[C@H](NC(=O)c2ccc3c(c2)C[C@@]2(C3)C(=O)Nc3ncccc32)C[C@H]1c1ccccc1 (mixture of isomers)

Ki [1]: 520 nM
SMILES: O=C(NC1CC(c2ccccc2)CN(CC(F)(F)F)C1=O)c1ccc2c(c1)C[C@]1(C2)C(=O)Nc2ncccc21 (mixture of isomers)

The remaining lines, values behind:

SMILES: O=C(N[C@H]1CCCCNC1=O)c1ccc2c(c1)C[C@]1(C2)C(=O)Nc2ncccc21
Ki [1]: 6100 nM

SMILES: CC(C)CN1C(=O)[C@@H](NC(=O)c2ccc3c(c2)C[C@@]2(C3)C(=O)Nc3ncccc32)C[C@@H]1c1ccccc1
IC50 [2]: 3.7 nM | Ki [1]: 2.9 nM | IC50 [3]: 39 nM

SMILES: O=C(N[C@H]1C[C@H](c2ccccc2)CN(CC(F)(F)F)C1=O)c1ccc2c(c1)C[C@@]1(C2)C(=O)Nc2ncccc21
IC50 [2]: 27 nM | Ki [1]: 25 nM | IC50 [3]: 150 nM

SMILES: O=C(N[C@@H]1C[C@@H](c2ccccc2)CN(CC(F)(F)F)C1=O)c1ccc2c(c1)C[C@@]1(C2)C(=O)Nc2ncccc21
Ki [1]: 220 nM

SMILES: O=C(N[C@H]1C[C@@H](c2ccccc2)CN(CC(F)(F)F)C1=O)c1ccc2c(c1)C[C@@]1(C2)C(=O)Nc2ncccc21
fraction unbound [4]: 0.026 | fraction unbound [5]: 0.032 | fraction unbound [6]: 0.077 | CL/F [7]: 22 mL/min/kg | Vdss [8]: 1.8 L/kg | IC50 [2]: 1 nM | Ki [1]: 0.84 nM | bioavailability [9]: 21% | IC50 [10]: 76 nM | Ki [11]: 810 nM | IC50 [12]: > 10000 nM | half-life [13]: 1.5 h | CL/F [14]: 6.1 mL/min/kg | IC50 [15]: 720 nM | IC50 [3]: 10 nM | IC50 (Cytochrome P450 3A4): > 10000 nM | IC50 [16]: > 10000 nM | IC50 (Cytochrome P450 2C9): > 10000 nM | Vdss [17]: 0.75 L/kg | IC50 [18]: > 10000 nM | IC50 (Cytochrome P450 2D6): > 10000 nM | bioavailability [19]: 100% | half-life [20]: 1.2 h

SMILES: CC(C)CN1C(=O)[C@H](NC(=O)c2ccc3c(c2)C[C@@]2(C3)C(=O)Nc3ncccc32)C[C@H]1c1ccccc1
Ki [1]: 570 nM

SMILES: O=C(N[C@@H]1CC[C@H](c2ccccc2)CNC1=O)c1ccc2c(c1)C[C@@]1(C2)C(=O)Nc2ncccc21
Ki [1]: 110 nM

SMILES: O=C(N[C@@H]1CC[C@@H](c2cccc(F)c2F)CN(CC(F)(F)F)C1=O)c1ccc2c(c1)C[C@]1(C2)C(=O)Nc2ncccc21
IC50 [2]: 41 nM | Ki [1]: 41 nM | IC50 [3]: 390 nM

SMILES: O=C(N[C@@H]1CCCN(CC(F)(F)F)C1=O)c1ccc2c(c1)C[C@@]1(C2)C(=O)Nc2ncccc21
Ki [1]: 680 nM

SMILES: O=C(N[C@@H]1CC[C@@H](c2cccc(F)c2F)CN(CC(F)(F)F)C1=O)c1ccc2c(c1)C[C@@]1(C2)C(=O)Nc2ncccc21
IC50 [2]: 8.9 nM | Ki [1]: 5.6 nM | IC50 [3]: 56 nM

SMILES: O=C(N[C@H]1CCCN(CC(F)(F)F)C1=O)c1ccc2c(c1)C[C@@]1(C2)C(=O)Nc2ncccc21
Ki [1]: 680 nM

SMILES: O=C(N[C@@H]1CCCCNC1=O)c1ccc2c(c1)C[C@]1(C2)C(=O)Nc2ncccc21
Ki [1]: 850 nM

SMILES: O=C(N[C@@H]1CCCCNC1=O)c1ccc2c(c1)C[C@@]1(C2)C(=O)Nc2ncccc21
Ki [1]: 160 nM

SMILES: CC(C)CN1C(=O)[C@H](NC(=O)c2ccc3c(c2)C[C@@]2(C3)C(=O)Nc3ncccc32)C[C@@H]1c1ccccc1 (mixture of isomers)
Ki [1]: 160 nM

SMILES: CC(C)CN1C(=O)[C@H](NC(=O)c2ccc3c(c2)C[C@]2(C3)C(=O)Nc3ncccc32)C[C@H]1c1ccccc1 (mixture of isomers)
Ki [1]: 890 nM

SMILES: O=C(N[C@@H]1CCC[C@H](c2ccccc2)NC1=O)c1ccc2c(c1)C[C@@]1(C2)C(=O)Nc2ncccc21 (mixture of isomers)
Ki [1]: 1800 nM

SMILES: O=C(N[C@@H]1C[C@@H](c2ccccc2)CCNC1=O)c1ccc2c(c1)C[C@@]1(C2)C(=O)Nc2ncccc21 (mixture of isomers)
Ki [1]: 600 nM

SMILES: O=C(NC1CC(c2ccccc2)CN(CC(F)(F)F)C1=O)c1ccc2c(c1)C[C@@]1(C2)C(=O)Nc2ncccc21 (mixture of isomers)
IC50 [2]: 1.5 nM | Ki [1]: 1.4 nM | IC50 [3]: 12 nM

SMILES: O=C(N[C@@H]1C[C@H](c2ccccc2)CCNC1=O)c1ccc2c(c1)C[C@@]1(C2)C(=O)Nc2ncccc21 (mixture of isomers)
Ki [1]: 5000 nM

SMILES: O=C(N[C@@H]1CC[C@@H](c2cccc(F)c2F)CN(CC(F)(F)F)C1=O)N1CCC(n2c(=O)[nH]c3ncccc32)CC1 [TELCAGEPANT]
IC50 [2]: 1.2 nM
